# Reference: PMC8951750, “In Vitro Anticancer and Cancer-Preventive Activity of New Triterpene Glycosides from the Far Eastern Starfish Solaster pacificus” (Marine Drugs, 2022)
# Test system: Human erythrocytes (O(I)+)
# Experiment: Hemolysis assay
# Type: cell-based
# Conditions: 1 h, 37 °C, PBS pH 7.4
# Method: Human erythrocytes (O(I)+) were obtained from Vladivostok blood transfusion station. Erythrocytes were centrifuged with PBS (pH 7.4) for 5 min at 4 °C by 450× g on a LABOFUGE 400R (Heraeus, Hanau, Germany) centrifuge three times. Then, the residue of erythrocytes was resuspended in ice-cold PBS (pH 7.4) to a final optical density of 2.0 at 700 nm and kept on ice. For the hemolytic assay, 180 µL of erythrocyte suspension was mixed with 20 µL of Cucumarioside A2-2 (positive control) and investigated compounds at concentrations range of 0.1, 0.5, 1, 5, 10 µM in V-bottom 96-well plates. After 1 h of incubation at 37 °C, plates were centrifuged at 900× g for 10 min on an LMC-3000 (Biosan, Riga, Latvia) laboratory centrifuge. Then, we carefully selected 100 µL of supernatant and transferred it to new flat plates, respectively. Lysis of erythrocytes was determined by measuring the concentration of hemoglobin in the supernatant with a microplate photometer Multiskan FC (Thermo Fisher Scientific, Waltham, MA, USA) at 570 nm. The effective dose causing 50% of erythrocytes hemolysis (ED50) was calculated using the computer program SigmaPlot 10.0. All experiments were made in triplicate, p < 0.01.
smiles,measurement,value
"C=C(C)CCCC1(C)OC(=O)C23CCC4C(=CCC5C(C)(C)C(OC6OCC(OS(=O)(=O)[O-])C(O)C6OC6OC(C)C(OC7OC(CO)C(O)C(OC8OC(CO)C(O)C(OC)C8O)C7O)C(O)C6OC6OCC(O)C(O)C6O)CCC45C)C2(C)CC(=O)C13.[Na+] (stereo not shown) [Cucumarioside A2-2, reference compound]","ED50, effective dose causing 50% of erythrocytes hemolysis",950 ± 40 nM
